Measured values taken from patent publication US20200368315A1, “ANTIMICROBIAL PEPTIDES AND ADMIXTURES THEREOF SHOWING ANTIMICROBIAL ACTIVITY AGAINST GRAM-NEGATIVE PATHOGENS” (priority 2017, published 2020).
Values after ≈ are worked out from the molar mass of the structure shown. Like-named read-outs stand apart in the source and are kept apart here. Non-standard residues stand in square brackets, D forms with d. Residues, ends and D or L forms follow the SMILES beside them. No end group written: not given here.

Assays:
A. baumannii LMG01041 [1] = test: microbe, parasite or virus in culture; assay type: cell-based, Acinetobacter baumannii
Description: (§1) Escherichia coli, Klebsiella pneumoniae, Pseudomonas aeruginosa, Acinetobacter baumannii, Enterobacter aerogenes were grown in Luria-Bertani (LB) broth shaken (200 rpm) or on LB agar at 37° C. […] MICs tests were performed in duplicate by a liquid growth inhibition microdilution assays in sterilized polypropylene microtiter plates according to Wiegand and […] [27]. […] The suspension was diluted in a ratio of 1:100 using Mueller Hinton Broth (MHB) and the final inoculum is 5*10^5 CFU/mL. […] The antimicrobials were diluted serially by 1/2 one by one and 50 uL diluted bacterial suspension were added to each well to make the final volume to be 100 uL. Growth control was accomplished by remove 10 uL from well 11 and dilute 1000 times to plate 1/10 suspension on the solid medium. […] The number of colonies on the control agar plate should be around 50 to ensure the concentration of the inoculum and the effectiveness of the experiment. The lowest concentration of the antimicrobials that inhibits visible growth of the indicator is identified as MIC.

E. coli LMG15862 [2] = test: microbe, parasite or virus in culture; assay type: cell-based, Escherichia coli; conditions: for MICb (GNP concentration when used alone): L-form GNP, Table 6
Description: as §1

K. pneumoniae LMG20218 [3] = test: microbe, parasite or virus in culture; assay type: cell-based, Klebsiella pneumoniae
Description: as §1

E. aerogenes LMG 02094 [4] = test: microbe, parasite or virus in culture; assay type: cell-based, Enterobacter aerogenes
Description: as §1

P. aeruginosa LMG 6395 [5] = test: microbe, parasite or virus in culture; assay type: cell-based, Pseudomonas aeruginosa
Description: as §1

K. pneumoniae LMG20218 [6] = test system: K. pneumoniae LMG20218
Description: (§2) The test of synergistic effect was processed by conducting standard chequerboard broth microdilution assays. […] Row 11 are used as growth control with no peptide was included, while row 12 with MHB medium-only wells was included as a sterility control as referred before. 50 uL fresh bacterial suspension was added to well 1-11 and final volume of each well on the plate is 100 uL.
(§3) The test of synergistic effect was processed as method 1.4.
(§4) To determine whether the combination therapy is additive, synergistic or antagonistic, fractional inhibitory concentration (FIC) indices were calculated. FICI=FICa+FICb=MICac/MICa+MICbc/MICb. The MICa/MICb is the MIC of compound A/B alone. MICac is the MIC of compound A in combination with compound B and MICbc is the MIC of compound B when it was combination with compound A. […]. FICa is FIC of compound A while FICb is FIC of compound B. The FICI is interpreted as follows: synergistic, FICI≤0.5; additive, 0.5<FICI<1; indifferent, 1<FICI<2; antagonistic, FICI>2.

E. coli LMG15862 [7] = test system: E. coli LMG15862
Description: as §2, §3, §4

A. baumannii LMG01041 [8] = test system: A. baumannii LMG01041
Description: as §2, §3, §4

P. aeruginosa LMG 6395 [9] = test system: P. aeruginosa LMG 6395
Description: as §2, §3, §4

E. aerogenes LMG 02094 [10] = test system: E. aerogenes LMG 02094
Description: as §2, §3, §4

A. baumannii LMG01041 [11] = assay type: cell-based, Acinetobacter baumannii
From the text: (§5) The test of synergistic effect was processed by conducting standard chequerboard broth microdilution assays. Nisin (Drug X) was loaded two fold serially diluted from row 1 to 10 in X-axis while GNPs (Drug Y) were loaded in eight two fold serially diluted concentrations from line A to H in Y-axis (FIG. 1). The original concentrations of peptides were MICs of each. Row 11 are used as growth control with no peptide was included, while row 12 with MHB medium-only wells was included as a sterility control as referred before. 50 uL fresh bacterial suspension was added to well 1-11 and final volume of each well on the plate is 100 uL.
as §4

E. coli LMG15862 [12] = assay type: cell-based, Escherichia coli
From the text: as §5, §4

E. aerogenes LMG 02094 [13] = assay type: cell-based, Enterobacter aerogenes
From the text: as §5, §4

K. pneumoniae LMG20218 [14] = assay type: cell-based, Klebsiella pneumoniae
From the text: as §5, §4

P. aeruginosa LMG 6395 [15] = assay type: cell-based, Pseudomonas aeruginosa
From the text: as §5, §4

[16] = gene nisA (nisin A mutants); cited from earlier work
[17] = MIC of GNP in combination with vancomycin at the MICac concentration
[18] = MIC of vancomycin in combination with the GNP at the MICbc concentration
[19] = MIC of GNP when used with the MICac concentration of nisin
[20] = MIC of nisin in combination with the GNP at the MICbc concentration

CC[C@@H](C)[C@@H](NC(=O)CN)C(=O)NCC(=O)N[C@H](CCCCN)C(=O)N[C@H](Cc1c[nH]cn1)C(=O)N[C@@H](C(=O)NCC(=O)N[C@H](CCCCN)C(=O)N[C@H](C)C(=O)N[C@H](CC(C)C)C(=O)N[C@H](CCCCN)C(=O)NCC(=O)N[C@H](CC(C)C)C(=O)N[C@H](CCCCN)C(=O)NCC(=O)N[C@H](CC(C)C)C(=O)N[C@H](CC(C)C)C(=O)N[C@H](CCCCN)C(=O)NCC(=O)N[C@H](CC(C)C)C(=O)NCC(=O)N[C@H](CCC(=O)O)C(=O)N[C@H](CS)C(=O)O)C(C)C [GNP-D7] (H-G[dI]G[dK][dH][dV]G[dK][dA][dL][dK]G[dL][dK]G[dL][dL][dK]G[dL]G[dE][dC]-OH; N-terminus and C-terminus assumed)
MICb (MIC of GNP alone) (A. baumannii LMG01041 [1]; D form GNP, A. baumannii LMG01041, Table 9): 2 µM
MIC value (A. baumannii LMG01041 [1]; LMG01041): 2 µM (≈ 4.55 µg/mL)
MICb (MIC of GNP alone) (E. coli LMG15862 [2]; D form GNP, E. coli LMG15862, Table 9): 2 µM
MIC value (E. coli LMG15862 [2]; LMG15862): 2 µM (≈ 4.55 µg/mL)
MICb (MIC of GNP alone) (K. pneumoniae LMG20218 [3]; D form GNP, K. pneumoniae LMG20218, Table 9): 4 µM
MIC value (K. pneumoniae LMG20218 [3]; LMG20218): 4 µM (≈ 9.11 µg/mL)
MICb (MIC of GNP alone) (E. aerogenes LMG 02094 [4]; D form GNP, E. aerogenes LMG 02094, Table 9): 4 µM
MIC value (E. aerogenes LMG 02094 [4]; LMG 02094): 4 µM (≈ 9.11 µg/mL)
MICb (MIC of GNP alone) (P. aeruginosa LMG 6395 [5]; D form GNP, P. aeruginosa LMG 6395, Table 9): 4 µM
MIC value (P. aeruginosa LMG 6395 [5]; LMG 6395): 4 µM (≈ 9.11 µg/mL)

AIVQRIKKWLR-NH2 [GNP8-3]
MICb (K. pneumoniae LMG20218 [6]; MIC of GNP alone): 24 µM
MICbc (K. pneumoniae LMG20218 [6]; [17]): 3 µM
MICac (K. pneumoniae LMG20218 [6]; [18]): 16 µM
MICb (E. coli LMG15862 [7]; MIC of GNP alone): 12 µM
MICbc (E. coli LMG15862 [7]; [17]): 3 µM
MICac (E. coli LMG15862 [7]; [18]): 4 µM
MICb (A. baumannii LMG01041 [8]; MIC of GNP alone): 128 µM
MICbc (A. baumannii LMG01041 [8]; [17]): 8 µM
MICac (A. baumannii LMG01041 [8]; [18]): 4 µM
MICb (P. aeruginosa LMG 6395 [9]; MIC of GNP alone): 16 µM
MICbc (P. aeruginosa LMG 6395 [9]; [17]): 8 µM
MICac (P. aeruginosa LMG 6395 [9]; [18]): 4 µM
MICb (E. aerogenes LMG 02094 [10]; MIC of GNP alone): 128 µM
MICbc (E. aerogenes LMG 02094 [10]; [17]): 16 µM
MICac (E. aerogenes LMG 02094 [10]; [18]): 12 µM
MICb (A. baumannii LMG01041 [11]; MIC of GNP alone): 128 µM
MICbc (A. baumannii LMG01041 [11]; [19]): 32 µM
MICac (A. baumannii LMG01041 [11]; [20]): 0.375 µM
MICb (E. coli LMG15862 [12]; MIC of GNP alone): 12 µM
MICbc (E. coli LMG15862 [12]; [19]): 1.5 µM
MICac (E. coli LMG15862 [12]; [20]): 1.5 µM
MICb (E. aerogenes LMG 02094 [13]; MIC of GNP alone): 128 µM
MICbc (E. aerogenes LMG 02094 [13]; [19]): 8 µM
MICac (E. aerogenes LMG 02094 [13]; [20]): 4 µM
MICb (K. pneumoniae LMG20218 [14]; MIC of GNP alone): 24 µM
MICbc (K. pneumoniae LMG20218 [14]; [19]): 3 µM
MICac (K. pneumoniae LMG20218 [14]; [20]): 1.5 µM
MICb (P. aeruginosa LMG 6395 [15]; MIC of GNP alone): 16 µM
MICbc (P. aeruginosa LMG 6395 [15]; [19]): 8 µM
MICac (P. aeruginosa LMG 6395 [15]; [20]): 4.5 µM

GIGKHVGKALKGLKGLLKGLGEC [GNP-7]
MICb (MIC of GNP alone) (A. baumannii LMG01041 [1]; LMG01041): 2 µM
MICb (GNP concentration when used alone) (E. coli LMG15862 [2]; E. coli LMG15862): 6 µM
MICb (MIC of GNP alone) (K. pneumoniae LMG20218 [3]; LMG20218): 12 µM
MICb (MIC of GNP alone) (E. aerogenes LMG 02094 [4]; LMG 02094): 8 µM
MICb (MIC of GNP alone) (P. aeruginosa LMG 6395 [5]; LMG 6395): 13 µM

GNNRPVYIPQPRPPHPRL [GNP-1]
MICb (MIC of GNP alone) (A. baumannii LMG01041 [1]; LMG01041): >64 µM
MICb (GNP concentration when used alone) (E. coli LMG15862 [2]; E. coli LMG15862): 0.5 µM
MICb (MIC of GNP alone) (K. pneumoniae LMG20218 [3]; LMG20218): 5 µM
MICb (MIC of GNP alone) (E. aerogenes LMG 02094 [4]; LMG 02094): 8 µM
MICb (MIC of GNP alone) (P. aeruginosa LMG 6395 [5]; LMG 6395): >64 µM

K12S (ITSISLCTPGCSTGALMGCNMKTATCHCSIHVSK; cysteine pairing not given here; also: lantibiotic nisin-A; UniProt P13068 24-57, looked up, variant K12S)
Biological activity (relative to the wild type) [16]: Increased (Increased activity, >120% compared to the activity of wild type nisin A/Z)

K12T (ITSISLCTPGCTTGALMGCNMKTATCHCSIHVSK; cysteine pairing not given here; also: lantibiotic nisin-A; UniProt P13068 24-57, looked up, variant K12T)
Biological activity (relative to the wild type) [16]: Increased (Increased activity, >120% compared to the activity of wild type nisin A/Z)
